Experimental findings from ChEMBL document CHEMBL1132038, “L-770,644: a potent and selective human beta3 adrenergic receptor agonist with improved oral bioavailability” (Bioorg Med Chem Lett, 1999) are described below.

Series [1] in a line: Compound was evaluated for the half-life (t 1/2) in hours. It counts as ADME, organism-based, Canis lupus familiaris. The following applies: dog, in vivo.
The nature of series [2]: Oral bioavailability in dog (p.o. dosing of 0.05 M citric acid/0.05 M hydrochloric acid solution). It counts as ADME, organism-based, Canis lupus familiaris. The following applies: in vivo.
The target in series [3] is T1, Beta-3 adrenergic receptor (Homo sapiens, UniProt P13945). As to the kind of experiment: Agonistic activity against the cloned human Beta-3 adrenergic receptor was measured by its by its ability to stimulate adenylyl cyclase. The class given is functional.
Target sequence in this assay (P13945 whole entry): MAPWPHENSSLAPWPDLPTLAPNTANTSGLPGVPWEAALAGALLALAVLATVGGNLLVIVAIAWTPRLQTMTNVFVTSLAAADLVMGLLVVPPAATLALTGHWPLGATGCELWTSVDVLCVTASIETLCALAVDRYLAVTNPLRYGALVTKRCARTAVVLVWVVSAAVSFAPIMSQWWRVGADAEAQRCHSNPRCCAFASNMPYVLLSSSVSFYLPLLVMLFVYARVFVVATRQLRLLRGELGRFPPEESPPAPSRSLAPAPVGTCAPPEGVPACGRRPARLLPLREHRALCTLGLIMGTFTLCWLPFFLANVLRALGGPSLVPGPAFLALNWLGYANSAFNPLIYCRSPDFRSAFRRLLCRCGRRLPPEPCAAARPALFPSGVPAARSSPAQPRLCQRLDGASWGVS
Series [4] has as its target T2, Beta-1 adrenergic receptor (Homo sapiens, UniProt P08588). The series can be described thus: Agonistic activity against the cloned human Beta-1 adrenergic receptor was measured by its by its ability to stimulate adenylyl cyclase. The class given is functional.
Target sequence in this assay (P08588 whole entry): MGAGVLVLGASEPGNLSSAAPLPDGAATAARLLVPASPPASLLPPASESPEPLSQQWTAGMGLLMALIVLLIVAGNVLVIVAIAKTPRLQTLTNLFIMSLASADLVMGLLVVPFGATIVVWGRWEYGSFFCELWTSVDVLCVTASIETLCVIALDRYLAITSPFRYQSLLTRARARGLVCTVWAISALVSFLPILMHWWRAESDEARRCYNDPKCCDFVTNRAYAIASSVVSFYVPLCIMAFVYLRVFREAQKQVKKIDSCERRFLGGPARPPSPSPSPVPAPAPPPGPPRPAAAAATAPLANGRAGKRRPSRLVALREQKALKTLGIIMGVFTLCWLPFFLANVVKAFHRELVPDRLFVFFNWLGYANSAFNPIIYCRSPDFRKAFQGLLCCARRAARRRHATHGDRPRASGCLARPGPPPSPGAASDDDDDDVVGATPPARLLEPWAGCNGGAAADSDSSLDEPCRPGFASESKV
Series [5] deals with T2, Beta-1 adrenergic receptor. As to the kind of experiment: Inhibitory activity against cloned human Beta-1 adrenergic receptor in the presence of [125I]iodocyanopindolol in CHO cells by receptor binding assay. It counts as cell-based.
Target sequence in this assay (P08588 whole entry): as above
The target in series [6] is T1, Beta-3 adrenergic receptor. The series can be described thus: Adenylyl cyclase activation expressed as percent of maximal stimulation with isoproterenol at the cloned human Beta-3 adrenergic receptor at 10 uM. The class given is functional.
Target sequence in this assay (P13945 whole entry, looked up): as the sequence (P13945 whole entry) above
Series [7] addresses T3, Beta-2 adrenergic receptor (Homo sapiens, UniProt P07550). As to the kind of experiment: Inhibitory activity against cloned human Beta-2 adrenergic receptor in the presence of [125I]iodocyanopindolol in CHO cells by receptor binding assay. The class given is cell-based.
Target sequence in this assay (P07550 whole entry): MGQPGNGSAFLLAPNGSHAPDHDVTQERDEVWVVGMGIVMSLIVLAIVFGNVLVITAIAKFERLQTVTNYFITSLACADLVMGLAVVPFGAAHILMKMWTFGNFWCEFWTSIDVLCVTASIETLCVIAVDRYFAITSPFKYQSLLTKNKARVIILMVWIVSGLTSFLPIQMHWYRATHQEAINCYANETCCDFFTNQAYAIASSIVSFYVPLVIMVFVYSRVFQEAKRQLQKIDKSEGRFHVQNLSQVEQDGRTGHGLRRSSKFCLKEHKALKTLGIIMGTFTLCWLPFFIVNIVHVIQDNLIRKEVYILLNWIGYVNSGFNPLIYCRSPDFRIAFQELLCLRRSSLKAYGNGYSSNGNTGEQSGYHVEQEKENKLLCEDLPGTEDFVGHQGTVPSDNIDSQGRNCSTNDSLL
In series [8] the target is T3, Beta-2 adrenergic receptor. As to the kind of experiment: Adenylyl cyclase activation expressed as percent of maximal stimulation with isoproterenol against the cloned human Beta-2 adrenergic receptor at 10 uM. The class given is functional.
Target sequence in this assay (P07550 whole entry, looked up): as the sequence (P07550 whole entry) above
In series [9] the target is T2, Beta-1 adrenergic receptor. The series can be described thus: Adenylyl cyclase activation expressed as percent of maximal stimulation with isoproterenol against the cloned human Beta-1 adrenergic receptor 10 uM. It counts as functional.
Target sequence in this assay (P08588 whole entry, looked up): as the sequence (P08588 whole entry) above
Series [10] can be described thus: Oral bioavailability in rat. It counts as ADME, organism-based. The conditions noted are these: in vivo.
The nature of series [11]: Oral bioavailability in dog. It counts as ADME, organism-based, Canis lupus familiaris. The conditions noted are these: in vivo.
Series [12] has as its target T3, Beta-2 adrenergic receptor. The series can be described thus: Adenylyl cyclase activation expressed as percent of maximal stimulation with isoproterenol at the cloned human Beta-2 adrenergic receptor at 10 uM. The class given is functional.
Target sequence in this assay (P07550 whole entry, looked up): as the sequence (P07550 whole entry) above
The target in series [13] is T1, Beta-3 adrenergic receptor. The series can be described thus: Inhibitory activity against cloned human Beta-3 adrenergic receptor in the presence of [125I]iodocyanopindolol expressed in CHO cells by receptor binding assay. It counts as cell-based.
Target sequence in this assay (P13945 whole entry): as the sequence (P13945 whole entry) above
Series [14] concerns the target T3, Beta-2 adrenergic receptor. As to the kind of experiment: Agonistic activity against the cloned human Beta-2 adrenergic receptor was measured by its by its ability to stimulate adenylyl cyclase. The class given is functional.
Target sequence in this assay (P07550 whole entry): as the sequence (P07550 whole entry) above
Series [15] addresses T2, Beta-1 adrenergic receptor. As to the kind of experiment: Adenylyl cyclase activation expressed as percent of maximal stimulation with isoproterenol at the cloned human Beta-1 adrenergic receptor at 10 uM. It counts as functional.
Target sequence in this assay (P08588 whole entry, looked up): as the sequence (P08588 whole entry) above
In series [16] the target is T2, Beta-1 adrenergic receptor. The series can be described thus: Inhibitory activity against cloned human Beta-1 adrenergic receptor in the presence of [125I]iodocyanopindolol expressed in CHO cells by receptor binding assay. It counts as cell-based.
Target sequence in this assay (P08588 whole entry): as above
Another series has as its system Monkey. As to the kind of experiment: Compound was tested for agonistic activity for glycerolemia in rhesus monkey. The class given is functional. The following applies: Cercopithecidae, in Macaca mulatta.

With `O=C1N(CCCC2CCCC2)CCN1c1ccc(S(=O)(=O)Nc2ccc(CCNC[C@H](O)c3cccnc3)cc2)cc1` [L-766892], the half-life (as a rule, the time in which the quantity being followed falls by half) in series [1] is 3.5 h. In [2], the bioavailability – broadly, the share of a dose that reaches the circulation, judged against a reference dose that is usually intravenous – is 17%.
`CCCCCCCCn1nnn(-c2ccc(S(=O)(=O)Nc3ccc(CCNC[C@H](O)c4cccnc4)cc3)cc2)c1=O`: the EC50 – broadly, the concentration giving half of the maximal effect – in [3] was found to be 6.3 nM; in series [4] it was 370 nM. The IC50 (commonly the concentration that inhibits the measured activity by half) in series [5] was 1400 nM; in series [7], 570 nM. The Activation in series [6] worked out at 57%.
For `CCCCCCn1nnn(-c2ccc(S(=O)(=O)Nc3ccc(CCNC[C@H](O)c4cccnc4)cc3)cc2)c1=O`, the figures for the Activation in [8], in series [9] and in series [6] were 9%, 19% and 67%, respectively. The molecule also registered an EC50 in series [3] of 30 nM. The results for the IC50 in [5] and in series [7] were 5000 nM and 3300 nM, respectively.
Regarding `O=c1n(CCCC2CCCC2)nnn1-c1ccc(S(=O)(=O)Nc2ccc(CCNC[C@H](O)c3cccnc3)cc2)cc1`, the bioavailability in series [10] and in [11] was 27% throughout. In addition, the values for the Activation in [12], in series [15] and in series [6] were 26%, 33% and 75%, respectively. Also, the results for the 50% inhibitory concentration (IC50) in [13], in [16] and in series [7] were 92 nM, 3400 nM and 1600 nM, respectively. The EC50 in [14] was 1800 nM; in series [3] it was 13 nM; in [4], 1900 nM. Moreover, the ED50 (in general, the midpoint of the dose-response relation) with Monkey turned out to be 0.21 mg/kg.
In series [1], `CCCCCCn1ccn(-c2ccc(S(=O)(=O)Nc3ccc(CCNC[C@H](O)c4cccnc4)cc3)cc2)c1=O` [L-764646] gave a half-life of 3.6 h. For the same molecule, the bioavailability in [2] was 12%.
